Data: US10407455B2, “Phillygenin glucuronic acid derivative as well as preparation method and application thereof” (priority 2015, dated 2019)
“And” between values parts separate entries of the source, which are not always exact repeats. Equal values may be shown once. Read-outs that look alike come from different tables or passages of the source. Marks after values point to notes of the source that are not given here.

What was measured:
enterovirus EV71 = assay: Influences of drugs on virus-induced CPE (antiviral effective rate, MTT), EV71; type: cell-based; conditions: EV71, Vero cells, 100TCID50, drug at nearly the maximum non-cytotoxic concentration
Parainfluenza virus [1] = assay: Influences of drugs on virus-induced CPE (antiviral effective rate, MTT), parainfluenza virus; type: cell-based; conditions: Vero cells, 100TCID50, drug at nearly the maximum non-cytotoxic concentration
influenza virus [2] = type: in vivo, Kunming mice; conditions: for inhibitory effect on the virus and the mouse virus pneumonia caused by it (in words): in vivo; for Lung index (X ± S) / Lung index inhibition rate (%): mice infected with influenza virus, 5 days, n = 3
[3] = system: respiratory syncytial virus (RSV); assay: Influences of drugs on virus-induced CPE (antiviral effective rate, MTT), RSV; type: cell-based; conditions: Vero cells, 100TCID50, drug at nearly the maximum non-cytotoxic concentration
Influenza virus [4] = assay: Influences of drugs on virus-induced CPE (antiviral effective rate, MTT), influenza virus; type: cell-based
[5] = system: Coxsackie virus B3 (CVB3); assay: Influences of drugs on virus-induced CPE (antiviral effective rate, MTT), CVB3; type: cell-based; conditions: CVB3, Vero cells, 100TCID50, drug at nearly the maximum non-cytotoxic concentration
Vero cells = conditions: 72 hours, MTT, Probit regression
Description: Performing subculture on Vero cells for 1-2 days to form sheets and have clear boundaries, performing trypsin digestion when stereoscopic impression and diopter are high, completely absorbing digestive juice when needle tip shaped holes occur on cells surfaces, blowing away the cells with milliliters of culture solution, counting, diluting to the quantity of 5×10^7 cells/L with the culture solution (DMEM containing 10% fetal calf serum), inoculating in a 96-well culture plate, and enabling the cells to grow to a single layer.
Cytotoxicity test: drugs are diluted with a maintenance solution (DMEM containing 2% fetal calf serum) according to concentrations shown in Table 1-1, and are used for cytotoxicity determination.

[6] = system: herpes simplex virus I (HSV-I); assay: Influences of drugs on virus-induced CPE (antiviral effective rate, MTT), HSV-I; type: cell-based; conditions: Vero cells, 100TCID50, drug at nearly the maximum non-cytotoxic concentration
adenovirus (AdV) = assay: Influences of drugs on virus-induced CPE (antiviral effective rate, MTT), ADV; type: cell-based; conditions: Vero cells, 100TCID50, drug at nearly the maximum non-cytotoxic concentration
[7] = system: Coxsackie virus A16 (CoxA16); assay: Influences of drugs on virus-induced CPE (antiviral effective rate, MTT), CoxA16; type: cell-based; conditions: CoxA16, Vero cells, 100TCID50, drug at nearly the maximum non-cytotoxic concentration
parainfluenza virus [8] = type: in vivo, Kunming mice
parainfluenza virus [9] = type: in vivo, Kunming mice; conditions: lung suspension, mice infected with parainfluenza virus, 5 days, n = 3
influenza virus [10] = type: in vivo, Kunming mice; conditions: lung suspension, mice infected with influenza virus, 5 days, n = 3
[11] = Influenza virus, Vero cells, 100TCID50, drug at nearly the maximum non-cytotoxic concentration
[12] = High-dose group 10.0 mg/kg/d intragastric
[13] = Low-dose group 2.25 mg/kg/d intragastric
[14] = Medium-dose group 5.0 mg/kg/d intragastric
[15] = mice infected with parainfluenza virus, 13.0 mg/kg/d (Compound I: High-dose group) intragastric, 5 days, n = 3

## COc1cc(C2OCC3C(c4ccc5c(c4)OCO5)OCC23)ccc1OC1OC(C(=O)O)C(O)C(O)C1O [Compound III, 33,34-Methylenedioxy phillygenin-8-O-β-D-glucuronide]
Enterovirus EV71
  antiviral effective rate (ER %): 51.64%
Parainfluenza virus [1]
  antiviral effective rate (ER %): 92.22** %
Influenza virus [2]
  inhibitory effect on the virus and the mouse virus pneumonia caused by it (in words): obvious inhibitory effects
[3]
  antiviral effective rate (ER %): 86.18** %
Influenza virus [4]; [11]
  antiviral effective rate (ER %): 91.35** %
[5]
  antiviral effective rate (ER %): 9.63%
Vero cells
  Maximum non-cytotoxic concentration (TC0): 0.0906 g/L
  Semi-cytotoxic concentration (TC50): 435 µg/mL
[6]
  antiviral effective rate (ER %): 96.06** %
Adenovirus (AdV)
  antiviral effective rate (ER %): 22.17* %
[7]
  antiviral effective rate (ER %): 100.00** %
Parainfluenza virus [8]; mouse, in vivo
  inhibitory effect on the virus and the mouse virus pneumonia caused by it (in words): obvious inhibitory effects

## COc1ccc(C2OCC3C(c4ccc(OC5OC(C(=O)O)C(O)C(O)C5O)c(O)c4)OCC23)cc1OC (stereo not shown) [Compound II]
Enterovirus EV71
  antiviral effective rate (ER %): 54.32%
Parainfluenza virus [1]
  antiviral effective rate (ER %): 90.13** %
Influenza virus [2]
  inhibitory effect on the virus and the mouse virus pneumonia caused by it (in words): obvious inhibitory effects
[3]
  antiviral effective rate (ER %): 81.14** %
Influenza virus [4]; [11]
  antiviral effective rate (ER %): 92.74** %
[5]
  antiviral effective rate (ER %): 11.18%
Vero cells
  Maximum non-cytotoxic concentration (TC0): 0.103 g/L
  Semi-cytotoxic concentration (TC50): 412 µg/mL
[6]
  antiviral effective rate (ER %): 93.35** %
Adenovirus (AdV)
  antiviral effective rate (ER %): 20.46* %
[7]
  antiviral effective rate (ER %): 99.25** %
Parainfluenza virus [8]; mouse, in vivo
  inhibitory effect on the virus and the mouse virus pneumonia caused by it (in words): obvious inhibitory effects

## COc1cc(C2OCC3C(c4ccc(OC5OC(C(=O)O)C(O)C(O)C5O)c(OC)c4)OCC23)ccc1O (stereo not shown) [Compound I]
Enterovirus EV71
  antiviral effective rate (ER %): 52.15%
Parainfluenza virus [1]
  antiviral effective rate (ER %): 96.24** %
Parainfluenza virus [9]; [12]
  Hemagglutination titer (InX): 19.68 ± 0.638
  Inhibition rate (%) of hemagglutination titer: 38.36%
Parainfluenza virus [9]; [13]
  Hemagglutination titer (InX): 21.62 ± 0.553
  Inhibition rate (%) of hemagglutination titer: 33.61%
Parainfluenza virus [9]; [14]
  Hemagglutination titer (InX): 20.47 ± 0.583
  Inhibition rate (%) of hemagglutination titer: 36.32%
Influenza virus [10]; [12]
  Hemagglutination titer (InX): 19.24 ± 0.513
  Inhibition rate (%) of hemagglutination titer: 40.28%
Influenza virus [10]; [13]
  Hemagglutination titer (InX): 22.16 ± 1.270
  Inhibition rate (%) of hemagglutination titer: 31.26%
Influenza virus [10]; [14]
  Hemagglutination titer (InX): 20.37 ± 0.285
  Inhibition rate (%) of hemagglutination titer: 36.32%
Influenza virus [2]; [12]
  Lung index (X ± S): 1.145 ± 0.037
  Lung index inhibition rate (%): 22.82%
Influenza virus [2]; [13]
  Lung index (X ± S): 1.225 ± 0.034
  Lung index inhibition rate (%): 17.85%
Influenza virus [2]; [14]
  Lung index (X ± S): 1.187 ± 0.028
  Lung index inhibition rate (%): 20.03%
Influenza virus [2]
  inhibitory effect on the virus and the mouse virus pneumonia caused by it (in words): obvious inhibitory effects
[3]
  antiviral effective rate (ER %): 83.21** %
Influenza virus [4]; [11]
  antiviral effective rate (ER %): 95.81** %
[5]
  antiviral effective rate (ER %): 10.16%
Vero cells
  Maximum non-cytotoxic concentration (TC0): 0.106 g/L
  Semi-cytotoxic concentration (TC50): 482 µg/mL
[6]
  antiviral effective rate (ER %): 91.23** %
Adenovirus (AdV)
  antiviral effective rate (ER %): 21.26* %
[7]
  antiviral effective rate (ER %): 100.00** %
Parainfluenza virus [8]; mouse, in vivo
  Lung index (X ± S): 1.277 ± 0.054 and 1.318 ± 0.028
  Lung index inhibition rate (%): 19.73% and 16.94%
  inhibitory effect on the virus and the mouse virus pneumonia caused by it (in words): obvious inhibitory effects
Parainfluenza virus [8]; mouse, in vivo, 13 mg/kg/day
  Lung index (X ± S): 1.239 ± 0.037
  Lung index inhibition rate (%): 22.26%

## CCOC(=O)C1=C[C@@H](OC(CC)CC)[C@H](NC(C)=O)[C@@H](N)C1 [Oseltamivir phosphate, reference compound]
Enterovirus EV71
  antiviral effective rate (ER %): 48.65%
Parainfluenza virus [1]
  antiviral effective rate (ER %): 92.11** %
Parainfluenza virus [9]; 19.5 mg/kg/d intragastric
  Hemagglutination titer (InX): 23.24 ± 1.242
  Inhibition rate (%) of hemagglutination titer: 31.14%
Influenza virus [10]; 19.5 mg/kg/d intragastric
  Hemagglutination titer (InX): 20.47 ± 1.104
  Inhibition rate (%) of hemagglutination titer: 35.26%
Influenza virus [2]; 19.5 mg/kg/d intragastric
  Lung index (X ± S): 1.176 ± 0.045
  Lung index inhibition rate (%): 19.76%
[3]
  antiviral effective rate (ER %): 39.22%
Influenza virus [4]; [11]
  antiviral effective rate (ER %): 82.19** %
[5]
  antiviral effective rate (ER %): 1.53%
Vero cells
  Maximum non-cytotoxic concentration (TC0): 0.27 g/L
  Semi-cytotoxic concentration (TC50): 834 µg/mL
[6]
  antiviral effective rate (ER %): 63.24** %
Adenovirus (AdV)
  antiviral effective rate (ER %): 12.12%
[7]
  antiviral effective rate (ER %): 2.94%
Parainfluenza virus [8]; mouse, in vivo, 19.5 mg/kg/day
  Lung index (X ± S): 1.241 ± 0.046
  Lung index inhibition rate (%): 21.83%

## COc1cc([C@H]2OC[C@H]3[C@@H]2CO[C@H]3c2ccc(OC)c(OC)c2)ccc1O [Phillygenin]
Enterovirus EV71
  antiviral effective rate (ER %): 32.27%
Parainfluenza virus [1]
  antiviral effective rate (ER %): 94.06** %
Parainfluenza virus [9]; 13.0 mg/kg/d intragastric
  Hemagglutination titer (InX): 23.63 ± 1.156
  Inhibition rate (%) of hemagglutination titer: 27.75%
Influenza virus [10]; 13.0 mg/kg/d intragastric
  Hemagglutination titer (InX): 21.15 ± 1.024
  Inhibition rate (%) of hemagglutination titer: 29.15%
Influenza virus [2]; 13.0 mg/kg/d intragastric
  Lung index (X ± S): 1.208 ± 0.025
  Lung index inhibition rate (%): 11.67%
[3]
  antiviral effective rate (ER %): 81.41** %
Influenza virus [4]; [11]
  antiviral effective rate (ER %): 88.17** %
[5]
  antiviral effective rate (ER %): 2.29%
Vero cells
  Maximum non-cytotoxic concentration (TC0): 0.012 g/L
  Semi-cytotoxic concentration (TC50): 293 µg/mL
[6]
  antiviral effective rate (ER %): 85.36** %
Adenovirus (AdV)
  antiviral effective rate (ER %): 14.25* %
[7]
  antiviral effective rate (ER %): 97.03** %
Parainfluenza virus [8]; [15]
  Lung index (X ± S): 1.349 ± 0.046
  Lung index inhibition rate (%): 14.56%

## NC(=O)c1ncn([C@@H]2O[C@H](CO)[C@@H](O)[C@H]2O)n1 [Ribavirin, reference compound]
Enterovirus EV71
  antiviral effective rate (ER %): 4.03** %
Parainfluenza virus [1]
  antiviral effective rate (ER %): 95.13** %
Parainfluenza virus [9]; 58.5 mg/kg/d intragastric
  Hemagglutination titer (InX): 24.32 ± 1.123
  Inhibition rate (%) of hemagglutination titer: 23.25%
Influenza virus [10]; 58.5 mg/kg/d intragastric
  Hemagglutination titer (InX): 21.87 ± 1.050
  Inhibition rate (%) of hemagglutination titer: 32.35%
[3]
  antiviral effective rate (ER %): 52.15* %
Influenza virus [4]
  antiviral effective rate (ER %): 56.44** %
[5]
  antiviral effective rate (ER %): 12.14%
[6]
  antiviral effective rate (ER %): 64.65** %
Adenovirus (AdV)
  antiviral effective rate (ER %): 0.47%
[7]
  antiviral effective rate (ER %): 0.72%
